Experimental data from patent US12391686B2, “Compounds and uses thereof” (Foghorn Therapeutics Inc., priority 2019, dated 2025).

These compounds were tested against T1, Nanoluciferase-BRD9 fusion protein (3×FLAG-NLuc-BRD9) in SYO-1 cells (Homo sapiens, UniProt Q9H8M2) (assay: SYO1 BRD9 NanoLuc Degradation Assay). Settings: Table 6B; SYO-1 cells expressing 3×FLAG-NLuc-BRD9, 6 hours incubation, 1 μM top dose; read-out: SYO1 BRD9-NanoLuc degradation IC50.
T1 construct: expressed in transfected cells; host or cells: SYO-1
T1 sequence (Q9H8M2 1-597): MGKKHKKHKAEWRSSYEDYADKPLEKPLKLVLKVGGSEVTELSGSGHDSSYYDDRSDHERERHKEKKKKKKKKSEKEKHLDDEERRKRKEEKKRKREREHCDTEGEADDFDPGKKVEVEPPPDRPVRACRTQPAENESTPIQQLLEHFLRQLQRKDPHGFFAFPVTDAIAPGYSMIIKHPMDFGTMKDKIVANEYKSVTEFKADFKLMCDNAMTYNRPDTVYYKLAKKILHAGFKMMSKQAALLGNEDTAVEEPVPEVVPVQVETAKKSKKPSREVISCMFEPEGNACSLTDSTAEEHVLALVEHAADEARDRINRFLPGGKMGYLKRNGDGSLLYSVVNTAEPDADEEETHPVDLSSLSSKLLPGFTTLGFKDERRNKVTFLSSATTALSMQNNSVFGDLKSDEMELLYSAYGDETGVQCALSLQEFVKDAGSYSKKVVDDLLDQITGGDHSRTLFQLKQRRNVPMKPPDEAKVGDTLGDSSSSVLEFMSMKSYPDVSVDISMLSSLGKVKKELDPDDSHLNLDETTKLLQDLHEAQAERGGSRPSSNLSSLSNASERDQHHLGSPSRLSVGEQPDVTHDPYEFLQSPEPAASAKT
Format: cell-based
Method: Procedure: A stable SYO-1 cell line expressing 3×FLAG-NLuc-BRD9 was generated. On day 0 cells were seeded in 30 μL media into each well of 384-well cell culture plates. The seeding density was 8000 cells/well. On day 1, cells were treated with 30 nL DMSO or 30 nL of 3-fold serially DMSO-diluted compounds (10 points in duplicates with 1 μM as final top dose). Subsequently plates were incubated for 6 hours in a standard tissue culture incubator and equilibrated at room temperature for 15 minutes. Nanoluciferase activity was measured by adding 15 μL of freshly prepared Nano-Glo Luciferase Assay Reagent (Promega N1130), shaking the plates for 10 minutes and reading the bioluminescence using an EnVision reader.
Results: The Inhibition % was calculated using the following formula: % Inhibition=100×(LumHC−Lumsample)/(LumHC−LumLC). DMSO treated cells are employed as High Control (HC) and 1 μM of a known BRD9 degrader standard treated cells are employed as Low Control (LC).

| Structure (SMILES) | DC50 [nM] |
| --- | --- |
| COc1cc(-c2cn(C)c(=O)c3cnc(N(C)C)cc23)cc(Cl)c1CN1CCC(C(=O)N2CCC3(CC2)CC(Oc2ccc4c(c2)C(=O)N(C2CCC(=O)NC2=O)C4=O)C3)CC1 (stereo not drawn) [Compound D102] | < 10 |
| COc1cc(-c2cn(C)c(=O)c3cnc(N(C)C)cc23)cc(OC)c1CN1CC(S(=O)(=O)NCCOCCOCCNc2cccc3c2C(=O)N(C2CCC(=O)NC2=O)C3=O)C1 (stereo not drawn) [Compound D37] | < 10 |
| COc1cc(-c2cn(C)c(=O)c3cnc(N(C)C)cc23)cc(OC)c1CN1CCN(CCC2CCN(c3ccc4c(c3)C(=O)N(C3CCC(=O)NC3=O)C4)CC2)CC1 (stereo not drawn) [Compound D120] | < 10 |
| COc1cc(-c2cn(C)c(=O)c3cnc(N(C)C)cc23)cc(OC)c1CN(C)C12CC(C(=O)NCCCCCOc3cccc4c3C(=O)N(C3CCC(=O)NC3=O)C4=O)(C1)C2 (stereo not drawn) [Compound D34] | < 10 |
| COc1cc(-c2cn(C)c(=O)c3cnc(N4CCOCC4)cc23)c(OC)cc1CN1CC(CN2CCC3(CC2)CN(c2ccc4c(c2)C(=O)N(C2CCC(=O)NC2=O)C4)C3)C1 (stereo not drawn) [Compound D147] | < 10 |
| COc1cc(-c2cn(C)c(=O)c3cnc(N(C)C)cc23)cc(OC)c1CN(C)CC12CC(C(=O)NCCCCCNc3ccc4c(c3)C(=O)N(C3CCC(=O)NC3=O)C4=O)(C1)C2 (stereo not drawn) [Compound D39] | < 10 |
| COc1cc(-c2cn(C)c(=O)c3ccc(N4CCC4)cc23)cc(OC)c1CN1CCC(N2CCC(c3ccc4c(c3)CN(C3CCC(=O)NC3=O)C4=O)CC2)CC1 (stereo not drawn) [Compound D183] | ≥ 1000 |
| COc1cc(-c2cn(C)c(=O)c3cnc(N(C)C)cc23)cc(OC)c1CN1CCN(CCC2CCN(c3ccc4c(c3)CN(C3CCC(=O)NC3=O)C4=O)CC2)CC1 (stereo not drawn) [Compound D121] | < 10 |

Results, then the compound that gave them:

| DC50 [nM] | Structure (SMILES) |
| --- | --- |
| < 10 | COc1cc(-c2cn(C)c(=O)c3cnc(N(C)C)cc23)cc(OC)c1CN1CCC(C(C)N2CCC3(CC2)CC(Oc2ccc4c(c2)C(=O)N(C2CCC(=O)NC2=O)C4=O)C3)CC1 (stereo not drawn) [Compound D75] |
| < 10 | COc1cc(-c2cn(C)c(=O)c3cnc(N(C)C)cc23)cc(OC)c1CN1CCN(C2(COc3cccc4c3C(=O)N(C3CCC(=O)NC3=O)C4=O)COC2)CC1 (stereo not drawn) [Compound D100] |
| < 10 | COc1cc(-c2cn(C)c(=O)c3cnc(N(C)C)cc23)cc(OC)c1CN1CC(CN2CCC3(CC2)CC(Oc2ccc4c(c2)C(=O)N(C2CCC(=O)NC2=O)C4=O)C3)C1 (stereo not drawn) [Compound D67] |
| < 10 | CCc1cc(-c2cn(C)c(=O)c3cnc(N(C)C)cc23)cc(OC)c1CN1CCC(CN2CCC3(CC2)CC(Oc2ccc4c(c2)C(=O)N(C2CCC(=O)NC2=O)C4=O)C3)CC1 (stereo not drawn) [Compound D174] |
| < 10 | COc1cc(-c2cn(C)c(=O)c3cnc(N(C)C)cc23)cc(OC)c1CN1CCN(C2(COc3ccc4c(c3)C(=O)N(C3CCC(=O)NC3=O)C4=O)CC2)CC1 (stereo not drawn) [Compound D109] |
| < 10 | COc1cc(-c2cn(C)c(=O)c3cnc(N(C)C)cc23)cc(OC)c1CN1CCN(C(C)(C)COc2cccc3c2C(=O)N(C2CCC(=O)NC2=O)C3=O)CC1 (stereo not drawn) [Compound D81] |
| < 10 | COc1cc(-c2cn(C)c(=O)c3cnc(N(C)C)cc23)cc(OC)c1CN1CC(S(=O)(=O)NCCN2CCN(c3ccc4c(c3)C(=O)N(C3CCC(=O)NC3=O)C4=O)CC2)C1 (stereo not drawn) [Compound D32] |
| < 10 | COc1cc(-c2cn(C)c(=O)c3cnc(N(C)C)cc23)cc(OC)c1CN1CC(C(=O)N2CC3(CCN(c4ccc5c(c4)C(=O)N(C4CCC(=O)NC4=O)C5=O)C3)C2)C1 (stereo not drawn) [Compound D66] |
| < 10 | COc1cc(-c2cn(C)c(=O)c3cnc(N(C)C)cc23)cc(OC)c1CN1CCC2(C1)CN(c1ccc3c(c1)C(=O)N(C1CCC(=O)NC1=O)C3=O)C2 (stereo not drawn) [Compound D91] |
| < 10 | COc1cc(-c2cn(C)c(=O)c3cnc(N(C)C)cc23)cc(OC)c1CN1CCN(C2CCN(c3ccc4c(c3)C(=O)N(C3CCC(=O)NC3=O)C4=O)CC2)CC1 (stereo not drawn) [Compound D53] |

Same assay, conditions: Table 6C; SYO-1 cells expressing 3×FLAG-NLuc-BRD9, 6 hours incubation, 1 μM top dose; read-out: SYO1 BRD9-NanoLuc degradation IC50

| Structure (SMILES) | DC50 [nM] |
| --- | --- |
| COc1cc(-c2cn(C)c(=O)c3cnc(C4CC4)cc23)cc(OC)c1CN1CC(C#Cc2ccc3c(c2)CN(C2CCC(=O)NC2=O)C3=O)C1 (stereo not drawn) [Compound D271] | < 10 |
| COc1cc(-c2cn(C)c(=O)c3cnc(N4CCC4)cc23)cc(OC)c1CN1CC(C(C)(C)N2CCC3(CC2)CN(c2ccc4c(c2)C(=O)N(C2CCC(=O)NC2=O)C4)C3)C1 (stereo not drawn) [Compound D192] | < 10 |
| COc1cc(-c2cn(C)c(=O)c3cnc(N4CCC4)cc23)cc(OC)c1CN1CCC(CN2CCC3(CC2)CC(Oc2ccc4c(c2)C(=O)N(C2CCC(=O)NC2=O)C4)C3)CC1 (stereo not drawn) [Compound D187] | < 10 |
| COc1cc(-c2cn(C)c(=O)c3cnc(C4CC4)cc23)cc(OC)c1CN1CCC(C#Cc2ccc3c(c2)C(=O)N(C2CCC(=O)NC2=O)C3=O)CC1 (stereo not drawn) [Compound D272] | < 10 |
| COc1cc2c(-c3cc(OC)c(C4CCN(c5ccc6c(c5)C(=O)N(C5CCC(=O)NC5=O)C6)CC4)c(OC)c3)cn(C)c(=O)c2cn1 (stereo not drawn) [Compound D295] | < 10 |
| [2H]C([2H])([2H])n1cc(-c2cc(OC)c(CN3[C@H](C)CN(c4ccc5c(c4)C(=O)N(C4CCC(=O)NC4=O)C5)C[C@H]3C)c(OC)c2)c2cc(OC)ncc2c1=O (stereo partly drawn) [Compound D254] | < 10 |
| COc1cc(-c2cn(C)c(=O)c3cnc(N(C)C)cc23)cc(OC)c1CN1CCN(c2cnn(C3CCC(=O)NC3=O)c2)CC1 (stereo not drawn) [Compound D270] | 10 to 100 |
| COc1cc(-c2nn(C)c(=O)c3cnc(N4CCC4)cc23)cc(OC)c1CN1CCC(CN2CCC3(CC2)CC(Oc2ccc4c(c2)C(=O)N(C2CCC(=O)NC2=O)C4)C3)CC1 (stereo not drawn) [Compound D191] | 100 to 1000 |
| COc1cc(-c2cn(C)c(=O)c3cnc(N4CC(F)C4)cc23)cc(OC)c1CN1CCC(CN2CCC3(CC2)CN(c2ccc4c(c2)C(=O)N(C2CCC(=O)NC2=O)C4)C3)CC1 (stereo not drawn) [Compound D206] | < 10 |
| COc1cc2c(-c3cc(OC)c(CN4CCN(c5ccc6c(c5)C(=O)N(C5CCC(=O)NC5=O)C6)CC4(C)C)c(OC)c3)cn(C)c(=O)c2cn1 (stereo not drawn) [Compound D260] | < 10 |
| COc1cc(-c2cn(C)c(=O)c3cnc(N4CC(F)(F)C4)cc23)cc(OC)c1CN1CCC(CN2CCC3(CC2)CN(c2ccc4c(c2)C(=O)N(C2CCC(=O)N(C)C2=O)C4)C3)CC1 (stereo not drawn) [Compound D261] | ≥ 1000 |
| COc1cc2c(-c3cc(OC)c(CN4CCN(c5cccc(OC6CCC(=O)NC6=O)c5)CC4)c(OC)c3)cn(C)c(=O)c2cn1 (stereo not drawn) [Compound D282] | 10 to 100 |
| COc1cc(-c2cn(C)c(=O)c3cnc(N4CCC4)cc23)cc(OC)c1CN1CCC2(CC1)CN(c1ccc3c(c1)CN(C1CCC(=O)NC1=O)C3=O)C2 (stereo not drawn) [Compound D310] | < 10 |
| [2H]C([2H])([2H])n1cc(-c2cc(OC)c(CN3CCC(CN4CCC5(CC4)CC(Oc4ccc6c(c4)C(=O)N(C4CCC(=O)NC4=O)C6=O)C5)CC3)c(OC)c2)c2cc(C3CC3)ncc2c1=O (stereo not drawn) [Compound D307] | < 10 |
| [2H]C([2H])([2H])n1cc(-c2cc(OC)c(CN3CC(Oc4ccc5c(c4)C(=O)N(C4CCC(=O)NC4=O)C5)C3)c(OC)c2)c2cc(C3CC3)ncc2c1=O (stereo not drawn) [Compound D247] | < 10 |
| COc1cc(-c2cn(C)c(=O)c3cnc(C(F)(F)F)cc23)cc(OC)c1CN1CCN(CCC2CCN(c3ccc4c(c3)CN(C3CCC(=O)NC3=O)C4=O)CC2)CC1 (stereo not drawn) [Compound D309] | < 10 |

More lines, now with the values ahead:

| DC50 [nM] | Structure (SMILES) |
| --- | --- |
| < 10 | COc1cc(-c2cn(C)c(=O)c3cnc(C4(C)CC4)cc23)cc(OC)c1CN1CC(Oc2ccc3c(c2)C(=O)N(C2CCC(=O)NC2=O)C3=O)C1 (stereo not drawn) [Compound D229] |
| < 10 | COc1cc(-c2cn(C)c(=O)c3cnc(N(C)C)cc23)cc(OC)c1CN1CCC(C#Cc2ccc3c(c2)C(=O)N(C2CCC(=O)NC2=O)C3=O)CC1 (stereo not drawn) [Compound D273] |
